Test results published in patent US20030092684A1, “Compositions and methods for treating hemorrhagic virus infections and other disorders” (priority 1999, published 2003).
Where “and” joins values, the source holds several entries; their conditions need not be identical. Identical values can stand only once. Like-named read-outs stand apart in the source and are kept apart here.

What was measured:
[1] = test system: TNF-α and IL-1β; experiment: Serum TNF-α and IL-1β in Dengue infected mice (Example 5); type: in vivo, BALB/c mice; settings: 100 μg orally twice per day from day 3 until day 8
[2] = 7 day period without viral infection
[3] = 58 mg/kg i.m. during 17 day period without virus injection
[4] = test system: Mononuclear human cells; experiment: In vitro activation of mononuclear human cells by antibiotics: IL-1RA and sTNFrI production; type: cell-based; settings: 0.06 mg/ml, activation for 2 hours
[5] = test system: Marburg virus strain Popp; design: species or system guinea-pigs; settings: guinea pig, in vivo
[6] = test system: IL-1RA and sTNFrl; experiment: IL-1RA and sTNFrl in human donor serum after oral antibiotic stimulation; type: in vivo; settings: after stimulation, 2 persons, on the 24th hour
[7] = test system: mice with the SEB-induced septic shock; design: species or system Balb/c mice; settings: mouse, in vivo
[8] = test system: Dengue virus type 2; experiment: Dengue virus infection treated with tetracycline compounds (Example 4): mortality; type: in vivo, BALB/c mice; settings: 20 mg/kg orally twice per day from day -3 until day 8
[9] = test system: Lassa virus strain Josiah; design: species or system BALB/c mice; settings: mouse, in vivo
[10] = test system: Dengue virus, type 2; design: species or system BALB/c mice; settings: mouse, in vivo, po
[11] = test system: TNF-α and IL-1β; experiment: Serum TNF and IL-1 in Dengue infected mice (Example 4); type: in vivo, BALB/c mice; settings: for IL-1 / TNF: 20 mg/kg orally twice per day from day -3 until day 8

## CN(C)C1C(O)=C(C(N)=O)C(=O)C2(O)C(O)=C3C(=O)c4c(O)cccc4C(C)(O)C3CC12 (stereo not drawn) [Tetracycline, 4-dimethylamino-1,4,4a,5,5a,6-11,12a-octahydro-3,6,10,12,12a-pentahydroxy-6-methyl-1,11-dioxo-2-naphthacenecarboxamide]
[1]; day 0
  IL-1: 6.0 pg/mL
  TNF: 7.8 pg/mL
[1]; day 1
  IL-1: 12.0 pg/mL
  TNF: 13.8 pg/mL
[1]; day 3
  IL-1: 36.0 pg/mL
  TNF: 38.2 pg/mL
[1]; day 5
  IL-1: 48.6 pg/mL
  TNF: 56.2 pg/mL
[1]; day 6
  IL-1: 62.4 pg/mL
  TNF: 156.8 pg/mL
[1]; day 12
  IL-1: 15.6 pg/mL
  TNF: 18.0 pg/mL
[1]; day 21
  IL-1: 5.8 pg/mL
  TNF: 7.4 pg/mL
[2]
  toxicity to control groups: not toxic
[2]; of 20 mice
  death: 0
  survival: 20
[3]
  toxicity to control groups: not toxic
[3]; of 6 guinea pigs
  survival: 6
[4]; 0 hours
  IL-1RA: 22 + 1.4 pg/ml
  sTNFrI: 19 + 1.2 pg/ml
[4]; 3 hours
  IL-1RA: 86 + 4.6 pg/ml
  sTNFrI: 185 + 8.4 pg/ml
[4]; 6 hours
  IL-1RA: 186 + 8.2 pg/ml
  sTNFrI: 204 + 9.2 pg/ml
[4]; 24 hours
  IL-1RA: 140 + 7.6 pg/ml
  sTNFrI: 201 + 8.6 pg/ml
[5]
  m.t.d. (mean time to death): 8.75 and 8.06 and 7.91
[6]
  IL-1RA in the donor serum: 130 ± 6.8 pg/mL
  sTNFrl in the donor serum: 580 ± 18.2 pg/mL
[7]
  mice survived 96 hours postinduction: About 20%
[8]; day 0
  Survival/total amount: 20/20
[8]; day 1
  Survival/total amount: 20/20
[8]; day 3
  Survival/total amount: 20/20
[8]; day 5
  Survival/total amount: 16/20
[8]; day 6
  Survival/total amount: 11/20
[8]; day 7
  Survival/total amount: 8/20
[8]; day 12
  Survival/total amount: 8/20
[8]; day -1
  Survival/total amount: 20/20
[9]
  survival: 80%
[9]; 58 mg/kg
  death: 4
[10]
  Survived/died: 9/11
  m.t.d. (average lifetime): 8.40 ± 0.73
[11]; 20 mg/kg orally twice per day
  increase of the concentration of TNF: 2 fold
[11]; 20 mg/kg twice per day from day -3 until day 8
  level of the cytokines in the serum versus control A2 group: statistically lower
[11]; by day 5 of the disease, 20 mg/kg orally twice per day
  increase of the concentration of IL-1: 10 fold
[11]; day 0
  IL-1: 6.8 pg/mL
[11]; day 1
  IL-1: 10.8 pg/mL
[11]; day 3
  IL-1: 46.8 pg/mL
  TNF: 14.0 pg/mL
[11]; day 5
  IL-1: 66.0 pg/mL
  TNF: 28.8 pg/mL
[11]; day 6
  IL-1: 56.8 pg/mL
  TNF: 38.4 pg/mL
[11]; day 7
  IL-1: 10.2 pg/mL
  TNF: 33 pg/mL
[11]; day 12
  IL-1: 7.4 pg/mL
  TNF: 19.6 pg/mL
[11]; day -1
  IL-1: 6.8 pg/mL
  TNF: 18.4 pg/mL
